Assay [1] deals with T1, cloned human 5-HT1A receptors (Homo sapiens, UniProt P08908).
T1 construct: expressed in transfected cells; host or cells: HeLa cells (HA7)
T1 sequence (P08908 1-422): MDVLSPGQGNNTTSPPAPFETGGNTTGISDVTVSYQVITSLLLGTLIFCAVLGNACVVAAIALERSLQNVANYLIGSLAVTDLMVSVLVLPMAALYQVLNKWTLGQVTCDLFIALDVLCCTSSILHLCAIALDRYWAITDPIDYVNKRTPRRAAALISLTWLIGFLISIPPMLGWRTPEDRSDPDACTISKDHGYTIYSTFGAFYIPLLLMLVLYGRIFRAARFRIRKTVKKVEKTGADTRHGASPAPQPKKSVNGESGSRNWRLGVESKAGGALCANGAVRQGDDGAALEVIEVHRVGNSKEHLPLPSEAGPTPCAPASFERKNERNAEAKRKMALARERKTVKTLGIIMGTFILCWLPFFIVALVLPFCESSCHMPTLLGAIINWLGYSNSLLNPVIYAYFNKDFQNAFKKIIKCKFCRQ
Kind of assay: Inhibition of 3H-5-CT binding to human 5-HT1A receptors. The following applies: cloned human 5-HT1A receptors in HeLa cells (HA7). The protocol: The affinity of the compounds of the invention to 5-HT1A receptors was determined by measuring the inhibition of binding of a radioactive ligand at 5-HT1A receptors as described in the following test:
Inhibition of ^3H-5-CT Binding to Human 5-HT1A Receptors
By this method the inhibition by drugs of the binding of the 5-HT1A agonist ^3H-5-carboxamido tryptamine (3H-5-CT) to cloned human 5-HT1A receptors stably expressed in transfected HeLa cells (HA7) (Fargin, A. et al, J. Biol. Chem., 1989, 264, 14848) is determined in vitro. The assay was performed as a modification of the method described by Harrington, M. A. et at, J. Pharmacol. Exp. Ther., 1994, 268, 1098. Human 5-HT1A receptors (40 μg of cell homogenate) were incubated for 15 minutes at 37° C. in 50 mM Tris buffer at pH 7.7 in the presence of ^3H-5-CT. Non-specific binding was determined by including 10 μM of metergoline. The reaction was terminated by rapid filtration through Unifilter GF/B filters on a Tomtec Cell Harvester. Filters were counted in a Packard Top Counter.

For assay [2], the target named is T2, human cloned dopamine D4.2 receptors (Homo sapiens, UniProt P21917, DEL265-296).
T2 construct: expressed in transfected cells; host or cells: CHO cells
T2 sequence (P21917 with tags, fused parts or gaps DEL265-296): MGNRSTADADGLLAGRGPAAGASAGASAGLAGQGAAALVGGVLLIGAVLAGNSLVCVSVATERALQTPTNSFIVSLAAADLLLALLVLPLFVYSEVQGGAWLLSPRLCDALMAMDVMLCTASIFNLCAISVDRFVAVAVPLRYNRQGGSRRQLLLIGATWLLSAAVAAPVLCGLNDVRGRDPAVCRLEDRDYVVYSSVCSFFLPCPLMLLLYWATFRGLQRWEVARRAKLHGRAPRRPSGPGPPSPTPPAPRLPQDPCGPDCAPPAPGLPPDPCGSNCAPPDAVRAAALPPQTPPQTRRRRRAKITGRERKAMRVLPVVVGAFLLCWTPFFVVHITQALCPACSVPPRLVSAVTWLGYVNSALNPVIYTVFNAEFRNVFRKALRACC
Kind of assay: Inhibition of the binding of 3H-YM-09151-2 to human dopamine D4 receptors. To be noted: human cloned dopamine D4.2 receptors in CHO-cells. The protocol:
The compounds of the invention have also been tested for their affinity to dopamine D4 receptors in the following test.
Inhibition of the Binding of ^3H-YM-09151-2 to Human Dopamine D4 Receptors
By this method the inhibition by drugs of the binding of [^3H]YM-09151-2 (0.06 nM) to membranes of human cloned dopamine D4.2 receptors expressed in CHO-cells is determined in vitro. Method modified from NEN Life Science Products, Inc., technical data certificate PC2533-10/96.

In the case of `Clc1ccc(Cl)c(SCCCCN2CCN(c3cccc4c3OCCO4)CC2)c1` [Compound 7bd, 1-[4-(2,5-Dichloro-phenylsulfanyl)-butyl]-4-(2,3-dihydro-benzo[1,4]dioxin-5-yl)-piperazine], the inhibition (commonly the relative decrease from the control value, in per cent) at 0.1 µM in assay [1] (at 100 nM) was found to be 84%. In addition, the inhibition at 0.05 µM in assay [2] (at 50 nM) worked out at 102%.

Take `Clc1ccc(OCCCN2CCN(c3cccc4c3OCCO4)CC2)cc1` [Compound 2a, 1-[3-(4-Chloro-phenoxy)-propyl]-4-(2,3-dihydro-benzo[1,4]dioxin-5-yl)-piperazine]: the IC50 (in general, the concentration at which inhibition is half-maximal) was found to be 4.4 nM in assay [1] and 4 nM in assay [2].

`Clc1ccc(Cl)c(SCCCN2CCN(c3cccc4c3OCCO4)CC2)c1` [Compound 7ay, 1-[3-(2,5-Dichloro-phenylsulfanyl)-propyl]-4-(2,3-dihydro-benzo[1,4]dioxin-5-yl)-piperazine]: the IC50 in assay [1] came out at 2 nM. The inhibition at 0.05 µM in assay [2] (at 50 nM) is 102%.

As for `Fc1cc(Br)c(OCCCN2CCN(c3cccc4c3OCCO4)CC2)c(Br)c1` [Compound 5aj, 1-[3-(2,6-Dibromo-4-fluoro-phenoxy)-propyl]-4-(2,3-dihydro-benzo[1,4]dioxin-5-yl)-piperazine], the figures for the IC50 in assay [1] and in assay [2] were 3.4 nM and 13 nM, respectively.

Take `C=CCc1cccc(Cl)c1OCCN1CCN(c2cccc3c2OCCO3)CC1` [Compound 7ai, 1-[2-(2-Allyl-6-chloro-phenoxy)-ethyl]-4-(2,3-dihydro-benzo[1,4]dioxin-5-yl)-piperazine]: the inhibition at 0.1 µM in assay [1] (at 100 nM) worked out at 90%. Besides, the inhibition at 0.05 µM in assay [2] (at 50 nM) was 82%.

As to `c1ccc(SCCN2CCN(c3cccc4c3OCCO4)CC2)cc1` [Compound 7aa, 1-(2,3-Dihydro-benzo[1,4]dioxin-5-yl)-4-(2-phenylsulfanyl-ethyl)-piperazine], the inhibition at 0.1 µM in assay [1] (at 100 nM) amounted to 78%. The inhibition at 0.05 µM in assay [2] (at 50 nM) is 84%.

For the molecule `Fc1cc(F)c(OCCCN2CCN(c3cccc4ccsc34)CC2)c(Br)c1` [Compound 5bt, 1-Benzo[h]thiophen-7-yl-4-[3-(2-bromo-4,6-difluoro-phenoxy)-propyl]-piperazine], the IC50 in assay [1] was found to be 8.6 nM; in assay [2], 6.3 nM.

`N#Cc1ccc(N2CCN(CCCOc3ccccc3Cl)CC2)c2c1OCCO2` [Compound 6c, 8-{4-[3-(2-Chloro-phenoxy)-propyl]-piperazin-1-yl}-2,3-dihydro-benzo[1,4]dioxine-5-carbonitrile]: the IC50 in assay [1] stood at 68 nM; in assay [2], 13 nM.

As for `Fc1ccc(OCCCN2CCN(c3cccc4c3OCCO4)CC2)c(Br)c1` [Compound 5aa, 1-[3-(2-Bromo-4-fluoro-phenoxy)-propyl]-4-(2,3-dihydro-benzo[1,4]dioxin-5-yl)-piperazine], the IC50 was 4.9 nM in assay [1] and 0.53 nM in assay [2].

As for `COc1cc(F)ccc1OCCCN1CCN(c2cccc3c2OCCO3)CC1` [Compound 1d, 1-(2,3-Dihydro-benzo[1,4]dioxin-5-yl)-4-[3-(4-fluoro-2-methoxy-phenoxy)-propyl]-piperazine], the IC50 in assay [1] was 5.3 nM; in assay [2], 3 nM.

For the molecule `CCc1ccccc1SCCN1CCN(c2cccc3c2OCCO3)CC1` [Compound 7as, 1-(2,3-Dihydro-benzo[1,4]dioxin-5-yl)-4-[2-(2-ethyl-phenylsulfanyl)-ethyl]-piperazine], the inhibition at 0.1 µM in assay [1] (at 100 nM) was found to be 80%. Moreover, in assay [2] (at 50 nM), the inhibition at 0.05 µM worked out at 93%.

As for `CS(=O)(=O)c1cc(Cl)c(OCCCN2CCN(c3cccc4ccsc34)CC2)c(Cl)c1` [Compound 5ao, 1-Benzo[b]thiophen-7-yl-4-[3-(2,6-dichloro-4-methanesulfonyl-phenoxy)-propyl]-piperazine], the IC50 in assay [1] was found to be 3.8 nM; in assay [2], 68 nM.

For the molecule `Fc1ccccc1SCCCCN1CCN(c2cccc3c2OCCO3)CC1` [Compound 7bf, 1-(2,3-Dihydro-benzo[1,4]dioxin-5-yl)-4-[4-(2-fluoro-phenylsulfanyl)-butyl]-piperazine], the inhibition at 0.1 µM in assay [1] (at 100 nM) worked out at 101%. The inhibition at 0.05 µM in assay [2] (at 50 nM) is 91%.

As for `Fc1cc(Br)cc(F)c1OCCCN1CCN(c2cccc3ccsc23)CC1` [Compound 5cj, 1-Benzo[b]thiophen-7-yl-4-[3-(4-bromo-2,6-difluoro-phenoxy)-propyl]-piperazine], the inhibition at 0.1 µM in assay [1] (at 100 nM) was found to be 93%. The molecule also showed an IC50 in assay [2] of 59 nM.

In the case of `N#Cc1cc(Br)c(OCCCN2CCN(c3cccc4c3OCCO4)CC2)c(Br)c1` [Compound 5bx, 3,5-Dibromo-4-{3-[4-(2,3-dihydro-benzo[1,4]dioxin-5-yl)-piperazin-1-yl]-propoxy}-benzonitrile], the IC50 in assay [1] came out at 2.2 nM; in assay [2], 19 nM.

Take `Cc1cccc(Cl)c1SCCCCN1CCN(c2cccc3c2OCCO3)CC1` [Compound 5av, 1-[4-(2-Chloro-6-methyl-phenylsulfanyl)-butyl]-4-(2,3-dihydro-benzo[1,4]dioxin-5-yl)-piperazine]: the IC50 in assay [1] was 5.1 nM; in assay [2], 1.4 nM.

Regarding `Cc1cccc(SCCCN2CCN(c3cccc4c3OCCO4)CC2)c1` [Compound 7aq, 1-(2,3-Dihydro-benzo[1,4]dioxin-5-yl)-4-(3-m-tolylsulfanyl-propyl)-piperazine], in assay [1] (at 100 nM), the inhibition at 0.1 µM was 101%. Further, the inhibition at 0.05 µM in assay [2] (at 50 nM) stood at 82%.

Regarding `Cc1cc(F)ccc1OCCCN1CCN(c2ccc(C#N)c3c2OCCO3)CC1` [Compound 6a, 8-{4-[3-(4-Fluoro-2-methyl-phenoxy)-propyl]-piperazin-1-yl}-2,3-dihydro-benzo[1,4]dioxine-5-carbonitrile], the values for the IC50 in assay [1] and in assay [2] were 120 nM and 6.9 nM, respectively.

On to `FC(F)(F)c1ccccc1SCCN1CCN(c2cccc3c2OCCO3)CC1` [Compound 7af, 1-(2,3-Dihydro-benzo[1,4]dioxin-5-yl)-4-[2-(2-trifluoromethyl-phenylsulfanyl)-ethyl]-piperazine], for which the inhibition at 0.1 µM in assay [1] (at 100 nM) is 99%. In addition, the inhibition at 0.05 µM in assay [2] (at 50 nM) amounted to 91%.

As for `FC(F)(F)c1ccccc1SCCCN1CCN(c2cccc3c2OCCO3)CC1` [Compound 7ak, 1-(2,3-Dihydro-benzo[1,4]dioxin-5-yl)-4-[3-(2-trifluoromethyl-phenylsulfanyl)-propyl]-piperazine], in assay [1] (at 100 nM), the inhibition at 0.1 µM stood at 93%. Besides, the inhibition at 0.05 µM in assay [2] (at 50 nM) was 98%.

As to `N#Cc1ccc(N2CCN(CCCOc3c(Cl)cccc3Cl)CC2)c2c1OCCO2` [Compound 5cl, 8-{4-[3-(2,6-Dichloro-phenoxy)-propyl]-piperazin-1-yl}-2,3-dihydro-benzo[1,4]dioxine-5-carbonitrile], the inhibition at 0.1 µM in assay [1] (at 100 nM) was 83%. Besides, in assay [2] (at 50 nM), the inhibition at 0.05 µM was 42%.

Take `Clc1ccc(Cl)c(SCCN2CCN(c3cccc4c3OCCO4)CC2)c1` [Compound 7at, 1-[2-(2,5-Dichloro-phenylsulfanyl)-ethyl]-4-(2,3-dihydro-henzo[1,4]dioxin-5-yl)-piperazine]: the “Inhibition of 3H-5-CT Binding % inhibition at 100 nM” value in assay [1] (at 100 nM) stood at 88%. In assay [2] (at 50 nM), the “Inhibition of 3H-YM-09151-2 binding % inhibition at 50 nM” value turned out to be 92%.

`Fc1ccccc1OCCCN1CCN(c2cccc3c2OCCO3)CC1` [Compound 2c, 1-(2,3-Dihydro-benzo[1,4]dioxin-5-yl)-4-[3-(2-fluoro-phenoxy)-propyl]-piperazine]: the IC50 worked out at 4 nM in assay [1] and 1.2 nM in assay [2].

For `CC1(C)Cc2cc(Cl)cc(N3CCN(CCCOc4c(Cl)cc(S(C)(=O)=O)cc4Cl)CC3)c2O1` [Compound 5bh, 1-(5-Chloro-2,2-dimethyl-2,3-dihydro-benzofuran-7-yl)-4-[3-(2,6-dichloro-4-methanesulfonyl-phenoxy)-propyl]-piperazine], the values for the IC50 in assay [1] and in assay [2] were 1.7 nM and 76 nM, respectively.

The record behind these values is US20030050306A1, “Novel heteroaryl derivatives, their preparation and use” (H. Lundbeck A/S, priority 1999, published 2003).
